From US20250120988A1, “SMALL MOLECULE COMPOUND FOR TREATING ISCHEMIC STROKE, ITS PREPARATION METHOD, AND APPLICATION” (SHANGHAI SIXTH PEOPLE'S HOSPITAL, priority 2023, published 2025)

System: primary cortical neurons
Test: Calcein-PI cell death staining of primary neurons under oxygen-glucose deprivation (OGD)
Format: cell-based, mice
Settings: 10 μM; primary cultured neurons; OGD 1 hour, pH 7.0
Protocol: Figure a illustrates cortical neurons staining from wild-type (ASIC1a+/+) and gene-deficient (ASIC1a−/−) mice primary cultures in the calcein-PI staining experiment. Blue green represents viable cells, and red represents dead cell nuclei. 10 μM CGS19755 and 10 μM LK-2 were added respectively in the cell culture medium under pH 7.0 conditions with OGD to be treated for 1 hour. Figure c illustrates, after being treated in the same experimental groups as Figure a, the analysis of each group of LDH of relative release levels. Figure d illustrates PI staining of ASIC1a-transfected CHO cells after 1 hour of treatment with pH 7.0 and 500 μM glutamate (Glu). […]
Taking into consideration that in addition to ASIC1a, neurons also express multiple membrane proteins that can be activated and lead to cell death during OGD, in order to more accurately verify that cell death is caused by glutamate activation of ASIC1a and that LK-2 indeed competitively antagonizes the glutamate so as to reduce cell death, we conducted the following experiment: CHO cells transfected with ASIC1a-GFP were divided into a control group (500 μM glutamate) and a drug intervention group (500 μM glutamate+10 μM LK-2). […] Live and dead cell nuclei were determined by observing under a 40× objective using excitation wavelengths of 488 nm and 546 nm. The number of stained cell nuclei was counted using Image-J software.

**Q.** Which “reduction of cell death rate” value does the source give for `O=C(O)C1CN(C(c2ccccc2)P(=O)(O)O)CCN1` (stereo not shown) [LK-2] here?
**A.** The value was 87%.
